Source: ChEMBL document CHEMBL5236646, “Design, synthesis, and biological evaluation of BRD4 degraders” (Bioorg Med Chem, 2023)
Calls of active or inactive are those of the source. The rule behind the calls is not given here.

What was measured:
[1] = test system: MV4-11; assay: Antiproliferative activity against human […] cells assessed as inhibition of cell growth incubated for 72 hrs MTS assay; type: functional, cell-based; details: MV4-11, 72 h
[2] = biological target: T1, Protein cereblon/Bromodomain-containing protein 4 (Homo sapiens) (UniProt O60885+Q96SW2); assay: Protac activity at CRBN/BRD4 in human MM1.S cells assessed as induction of BRD4 protein degradation by measuring residual activity at 0.09 uM incubated for 3 hrs by Western blot analysis relative to control; type: cell-based
[3] = biological target: T1, Protein cereblon/Bromodomain-containing protein 4 (Homo sapiens); assay: Protac activity at CRBN/BRD4 in human MM1.S cells assessed as induction of BRD4 protein degradation by measuring residual activity at 0.03 uM incubated for 3 hrs by Western blot analysis relative to control; type: cell-based
[4] = biological target: T1, Protein cereblon/Bromodomain-containing protein 4 (Homo sapiens); assay: Protac activity at CRBN/BRD4 in human MM1.S cells assessed as induction of BRD4 protein degradation by measuring residual activity at 300 nM measured after 6 hrs by Western blot analysis (reference value: 317%); type: cell-based
[5] = Inhibition of TGF-beta induced activation of human MRC5 cells assessed as residual BRD4 protein level at 0.1 uM by Western blot analysis (reference value: 96%); type: functional
[6] = biological target: T1, Protein cereblon/Bromodomain-containing protein 4 (Homo sapiens); assay: Protac activity at CRBN/BRD4 in human MM1.S cells assessed as induction of BRD4 protein degradation by measuring residual activity at 1000 nM measured after 6 hrs by Western blot analysis (reference value: 100%); type: cell-based
[7] = biological target: T1, Protein cereblon/Bromodomain-containing protein 4 (Homo sapiens); assay: Protac activity at CRBN/BRD4 in human MV4-11 cells assessed as induction of BRD4 protein degradation by measuring residual activity at 3 nM measured after 6 hrs by Western blot analysis (reference value: 100%); type: cell-based
[8] = biological target: T1, Protein cereblon/Bromodomain-containing protein 4 (Homo sapiens); assay: Protac activity at CRBN/BRD4 in human MM1.S cells assessed as induction of BRD4 protein degradation by measuring residual activity at 300 nM preincubated with lenalidomide for 2 hrs followed by compound addition and measured after 6 hrs by Western blot analysis (reference value: 100%); type: cell-based
[9] = biological target: T1, Protein cereblon/Bromodomain-containing protein 4 (Homo sapiens); assay: Protac activity at CRBN/BRD4 in human MV4-11 cells assessed as induction of BRD4 protein degradation by measuring residual activity at 30 nM preincubated with lenalidomide for 2 hrs followed by compound addition and measured after 6 hrs by Western blot analysis (reference value: 100%); type: cell-based
[10] = biological target: T1, Protein cereblon/Bromodomain-containing protein 4 (Homo sapiens); assay: Protac activity at CRBN/BRD4 in human MV4-11 cells assessed as induction of BRD4 protein degradation by measuring residual activity at 0.003 uM incubated for 3 hrs by Western blot analysis relative to control; type: cell-based
[11] = Inhibition of TGF-beta induced activation of human MRC5 cells assessed as residual BRD4 protein level at 0.5 uM by Western blot analysis (reference value: 96%); type: functional
[12] = biological target: T1, Protein cereblon/Bromodomain-containing protein 4 (Homo sapiens); assay: Protac activity at CRBN/BRD4 in human MM1.S cells assessed as induction of BRD4 protein degradation by measuring residual activity at 300 nM measured after 3 hrs by Western blot analysis (reference value: 317%); type: cell-based
[13] = biological target: T1, Protein cereblon/Bromodomain-containing protein 4 (Homo sapiens); assay: Protac activity at CRBN/BRD4 in human MV4-11 cells assessed as induction of BRD4 protein degradation by measuring residual activity at 30 nM measured after 3 hrs by Western blot analysis (reference value: 100%); type: cell-based
[14] = biological target: T1, Protein cereblon/Bromodomain-containing protein 4 (Homo sapiens); assay: Protac activity at CRBN/BRD4 in human MM1.S cells assessed as induction of BRD4 protein degradation by measuring residual activity at 300 nM measured immediately by Western blot analysis (reference value: 317%); type: cell-based
[15] = Inhibition of TGF-beta induced activation of human MRC5 cells assessed as residual BRD4 protein level at 1 uM by Western blot analysis (reference value: 96%); type: functional
[16] = Inhibition of TGF-beta induced activation of human MRC5 cells assessed as residual BRD4 protein level at 5 uM by Western blot analysis (reference value: 96%); type: functional
[17] = biological target: T1, Protein cereblon/Bromodomain-containing protein 4 (Homo sapiens); assay: Protac activity at CRBN/BRD4 in human MV4-11 cells assessed as induction of BRD4 protein degradation by measuring residual activity at 10 nM measured after 6 hrs by Western blot analysis (reference value: 100%); type: cell-based
[18] = test system: MRC5; assay: Inhibition of TGF-beta induced activation of human MRC5 cells assessed as downregulation of alpha-SMA protein expression at 0.1 to 10 uM by Western blot analysis; type: functional, cell-based; details: dose 0.1-10 µM
[19] = biological target: T1, Protein cereblon/Bromodomain-containing protein 4 (Homo sapiens); assay: Protac activity at CRBN/BRD4 in human MV4-11 cells assessed as induction of BRD4 protein degradation by measuring residual activity at 30 nM measured after 1 hr by Western blot analysis (reference value: 100%); type: cell-based
[20] = biological target: T1, Protein cereblon/Bromodomain-containing protein 4 (Homo sapiens); assay: Protac activity at CRBN/BRD4 in human MV4-11 cells assessed as induction of BRD4 protein degradation by measuring residual activity at 0.001 uM incubated for 3 hrs by Western blot analysis relative to control; type: cell-based
[21] = biological target: T1, Protein cereblon/Bromodomain-containing protein 4 (Homo sapiens); assay: Protac activity at CRBN/BRD4 in human MV4-11 cells assessed as induction of BRD4 protein degradation by measuring residual activity at 100 nM measured after 6 hrs by Western blot analysis (reference value: 100%); type: cell-based
[22] = biological target: T1, Protein cereblon/Bromodomain-containing protein 4 (Homo sapiens); assay: Protac activity at CRBN/BRD4 in human MV4-11 cells assessed as induction of BRD4 protein degradation by measuring residual activity at 30 nM measured after 6 hrs by Western blot analysis (reference value: 100%); type: cell-based
[23] = biological target: T1, Protein cereblon/Bromodomain-containing protein 4 (Homo sapiens); assay: Protac activity at CRBN/BRD4 in human MM1.S cells assessed as induction of BRD4 protein degradation by measuring residual activity at 300 nM preincubated with tert-butyl (S)-2-(4-(4-chlorophenyl)-2,3,9-trimethyl-6H-thieno[3,2-f][1,2,4]triazolo[4,3-a][1,4]diazepin-6-yl)acetate for 2 hrs followed by compound addition and measured after 6 hrs by Western blot analysis (reference value: 100%); type: cell-based
[24] = biological target: T1, Protein cereblon/Bromodomain-containing protein 4 (Homo sapiens); assay: Protac activity at CRBN/BRD4 in human MM1.S cells assessed as induction of BRD4 protein degradation by measuring residual activity at 10 nM measured after 6 hrs by Western blot analysis (reference value: 100%); type: cell-based
[25] = biological target: T1, Protein cereblon/Bromodomain-containing protein 4 (Homo sapiens); assay: Protac activity at CRBN/BRD4 in human MM1.S cells assessed as downregulation of MYC protein expression at 300 nM measured after 3 hrs by Western blot analysis; type: cell-based
[26] = test system: MRC5; assay: Inhibition of TGF-beta induced activation of human MRC5 cells assessed as downregulation of COL-1 protein expression at 0.1 to 10 uM by Western blot analysis; type: functional, cell-based; details: dose 0.1-10 µM
[27] = biological target: T1, Protein cereblon/Bromodomain-containing protein 4 (Homo sapiens); assay: Protac activity at CRBN/BRD4 in human MV4-11 cells assessed as induction of BRD4 protein degradation by measuring residual activity at 0.009 uM incubated for 3 hrs by Western blot analysis relative to control; type: cell-based
[28] = biological target: T1, Protein cereblon/Bromodomain-containing protein 4 (Homo sapiens); assay: Protac activity at CRBN/BRD4 in human MM1.S cells assessed as induction of BRD4 protein degradation by measuring residual activity at 30 nM measured after 6 hrs by Western blot analysis (reference value: 100%); type: cell-based
[29] = biological target: T1, Protein cereblon/Bromodomain-containing protein 4 (Homo sapiens); assay: Protac activity at CRBN/BRD4 in human MM1.S cells assessed as induction of BRD4 protein degradation by measuring residual activity at 300 nM measured after 1 hr by Western blot analysis (reference value: 317%); type: cell-based
[30] = biological target: T1, Protein cereblon/Bromodomain-containing protein 4 (Homo sapiens); assay: Protac activity at CRBN/BRD4 in human MV4-11 cells assessed as downregulation of MYC protein expression at 30 uM incubated for 3 hrs by Western blot analysis; type: cell-based

T1 sequence (Q96SW2 whole entry, looked up, other chains not shown): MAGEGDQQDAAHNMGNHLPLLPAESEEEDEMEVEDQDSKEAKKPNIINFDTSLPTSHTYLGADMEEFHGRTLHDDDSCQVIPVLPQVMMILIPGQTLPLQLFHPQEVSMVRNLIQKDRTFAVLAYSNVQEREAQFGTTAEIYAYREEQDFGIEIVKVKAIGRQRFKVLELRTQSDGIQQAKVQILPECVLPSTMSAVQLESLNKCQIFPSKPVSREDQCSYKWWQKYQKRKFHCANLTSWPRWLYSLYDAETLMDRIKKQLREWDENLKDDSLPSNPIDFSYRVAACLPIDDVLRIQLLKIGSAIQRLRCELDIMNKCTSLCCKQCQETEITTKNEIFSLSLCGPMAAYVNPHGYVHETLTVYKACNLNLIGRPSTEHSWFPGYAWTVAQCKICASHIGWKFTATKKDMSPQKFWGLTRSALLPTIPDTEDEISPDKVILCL

## Cc1sc2c(c1C)C(c1ccc(Cl)cc1)=N[C@@H](CC(=O)NCCCCC(=O)NCCNc1cccc3c1C(=O)N(C1CCC(=O)NC1=O)C3=O)c1nnc(C)n1-2 (stereo not given in full)
[1]
  IC50: 3 nM
[2]
  Activity: 70%
[3]
  Activity: 81%
[4]
  Activity: 18%
[5]
  Activity: 31%
[6]
  Activity: 10%
[7]
  Activity: 80%
[8]
  Activity: 67%
[9]
  Activity: 85%
[10]
  Activity: 66%
[11]
  Activity: 26%
[12]
  Activity: 66%
[13]
  Activity: 72%
[14]
  Activity: 362%
[15]
  Activity: 40%
[16]
  Activity: 33%
[17]
  Activity: 41%
[18]
  inhibition: Active
[19]
  Activity: 62%
[20]
  Activity: 100%
[21]
  Activity: 28%
[22]
  Activity: 13%
[23]
  Activity: 61%
[24]
  Activity: 62%
[25]
  Activity: Active
[26]
  inhibition: Active
[27]
  Activity: 62%
[28]
  Activity: 42%
[29]
  Activity: 129%
[30]
  Activity: Active
